GI50 and TGI data for nine molecules are collected here from PubChem BioAssay (NCI).

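A five-concentration, 48-hour dose response in 96-well plates underlies each endpoint, interpolated linearly between surrounding concentrations. Here, GI50 denotes the concentration required for 50% inhibition of growth. TGI is the concentration that stops growth completely.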

Some test systems named below: 786-0 renal; HOP-62 NSCLC; NCI-H460 lung; PC-3 prostate; RXF 393 renal; SK-MEL-28 melanoma; SK-OV-3 ovarian; SN12C renal; U251 CNS; UO-31 renal.
What all share (assay): growth of human tumour cells (NCI), 48 h

Regarding `CCCCCCCCCCCCCCCCOC(=O)c1c(C)[nH]c(/C=C2\N=C(c3ccc[nH]3)C=C2OC)c1C`, the GI50 was 1.07 µM in the assay on 786-0 renal; 2.89 µM with HOP-62 NSCLC; 0.0429 µM with NCI-H460 lung; 0.162 µM in the assay with PC-3 prostate; 1.41 µM in the assay with RXF 393 renal; 3.94 µM in the assay with SK-MEL-28 melanoma. Besides, the GI50 in the assay on SK-OV-3 ovarian is 2.35 µM; with SN12C renal, 1.64 µM; in the assay with U251 CNS, 0.638 µM; with UO-31 renal, 1.21 µM. For the same molecule, the TGI in the assay with 786-0 renal was 14.4 µM; in the assay with HOP-62 NSCLC, 12.8 µM; with NCI-H460 lung, more than 100 µM; in the assay on PC-3 prostate it was more than 100 µM; in the assay with RXF 393 renal it was 6.46 µM; with SK-MEL-28 melanoma, more than 48.7 µM. The TGI with SK-OV-3 ovarian is 5.9 µM; in the assay on SN12C renal, 23.7 µM; in the assay with U251 CNS, 7.04 µM; in the assay on UO-31 renal, 17.1 µM.

Turning to `CN1C(=O)c2cc([N+](=O)[O-])ccc2[C@H]2C(=O)c3cc4c(cc3[C@H]21)OCO4`, the GI50 with 786-0 renal was 0.0388 µM; in the assay with HOP-62 NSCLC, 0.158 µM; in the assay on NCI-H460 lung it was 0.0285 µM; with PC-3 prostate, 0.521 µM; in the assay on RXF 393 renal, 0.398 µM; in the assay with SK-MEL-28 melanoma, 0.25 µM. Moreover, the GI50 in the assay on SK-OV-3 ovarian was 0.588 µM; in the assay with SN12C renal, 0.0386 µM; in the assay on U251 CNS, 0.0191 µM; with UO-31 renal, 0.0409 µM. The TGI in the assay with HOP-62 NSCLC is more than 100 µM; with NCI-H460 lung, 0.195 µM; in the assay on PC-3 prostate it was 63 µM; with SK-MEL-28 melanoma, more than 32.4 µM; with SK-OV-3 ovarian, more than 100 µM; in the assay on SN12C renal, 0.838 µM. The TGI with U251 CNS was 0.162 µM; in the assay on UO-31 renal it was 1.51 µM.

In the case of `CC(=O)Nc1ccc2c(c1)C(=O)c1cccc(F)c1-2`, the TGI with 786-0 renal was more than 100 µM; in the assay on HOP-62 NSCLC, more than 100 µM; with NCI-H460 lung, more than 100 µM; in the assay with PC-3 prostate, more than 100 µM; in the assay on RXF 393 renal, more than 91.2 µM; in the assay on SK-MEL-28 melanoma, more than 100 µM. For the same molecule, the TGI with SK-OV-3 ovarian, in the assay on SN12C renal, in the assay on U251 CNS and in the assay with UO-31 renal was more than 100 µM in each case.

With `COc1ccc2c(c1)C(=O)/C(=C/c1ccc([N+](=O)[O-])s1)O2`, the GI50 with 786-0 renal was 1.47 µM; with HOP-62 NSCLC, 1.07 µM; with NCI-H460 lung, 0.411 µM; in the assay with PC-3 prostate, 0.283 µM; in the assay on RXF 393 renal, 0.284 µM; in the assay with SK-MEL-28 melanoma, 0.248 µM. The GI50 with SK-OV-3 ovarian is 2.68 µM; with SN12C renal, 0.483 µM; in the assay on U251 CNS, 0.287 µM; in the assay with UO-31 renal, 0.232 µM. Besides, the TGI was 6.73 µM with 786-0 renal; 3.47 µM with HOP-62 NSCLC; 1.64 µM in the assay with NCI-H460 lung; 0.926 µM in the assay on RXF 393 renal; 0.689 µM in the assay on SK-MEL-28 melanoma; 7.77 µM in the assay on SK-OV-3 ovarian. The TGI with SN12C renal came out at 2.32 µM; in the assay on U251 CNS, 0.943 µM; with UO-31 renal, 0.614 µM.

For `Cc1[nH]n(-c2ccc(S(=O)(=O)O)cc2)c(=O)c1N=Nc1ccccc1`, the TGI with 786-0 renal, with HOP-62 NSCLC, with NCI-H460 lung, with PC-3 prostate, in the assay with RXF 393 renal and in the assay on SK-MEL-28 melanoma was more than 100 µM throughout. In addition, the TGI in the assay on SK-OV-3 ovarian, with SN12C renal, in the assay with U251 CNS and in the assay with UO-31 renal was more than 100 µM in each case.

On to `N#Cc1c(-c2ccc(Cl)cc2)c(-c2ccc(Cl)cc2)nn(CCOC(=O)CCC(=O)O)c1=O`, for which the TGI in the assay with 786-0 renal was 55.3 µM; in the assay on HOP-62 NSCLC it was 34.8 µM; in the assay on NCI-H460 lung, 32.5 µM; in the assay on PC-3 prostate, more than 48.4 µM; with RXF 393 renal, 11.9 µM; with SK-MEL-28 melanoma, more than 85.6 µM. Further, the TGI is 30.8 µM in the assay with SK-OV-3 ovarian, more than 60 µM in the assay with SN12C renal, 40.3 µM in the assay on U251 CNS and 50 µM in the assay with UO-31 renal.

Turning to `CO/N=C(\COc1ccc2c(c1)oc(=O)c1cc(OC)ccc12)c1cccc(OC)c1`, the GI50 with 786-0 renal, in the assay with HOP-62 NSCLC, in the assay with NCI-H460 lung, in the assay with PC-3 prostate, in the assay on RXF 393 renal and in the assay with SK-MEL-28 melanoma was more than 100 µM in each case. The GI50 in the assay on SK-OV-3 ovarian, with SN12C renal, in the assay on U251 CNS and in the assay with UO-31 renal was more than 100 µM each time. The TGI in the assay with 786-0 renal, in the assay with HOP-62 NSCLC, in the assay on NCI-H460 lung, in the assay on PC-3 prostate, in the assay with RXF 393 renal and in the assay on SK-MEL-28 melanoma was more than 100 µM each time. Also, the TGI in the assay on SK-OV-3 ovarian, in the assay with SN12C renal, in the assay with U251 CNS and in the assay on UO-31 renal was more than 100 µM each time.

As for `Cc1ccc(/C=C/C(=O)c2ccc(N)cc2)c(C)c1`, the GI50 is 1.88 µM in the assay on 786-0 renal; 17 µM in the assay with HOP-62 NSCLC; 14.7 µM in the assay on NCI-H460 lung; 14.6 µM in the assay on PC-3 prostate; 5.56 µM in the assay on RXF 393 renal; 16.6 µM in the assay with SK-MEL-28 melanoma. For the same molecule, the GI50 was 16.5 µM in the assay with SK-OV-3 ovarian, 1.95 µM in the assay with SN12C renal, 6.5 µM with U251 CNS and 1.83 µM in the assay on UO-31 renal. Also, the TGI was determined as 3.45 µM with 786-0 renal; 38 µM with HOP-62 NSCLC; 33.8 µM in the assay on NCI-H460 lung; 28.2 µM in the assay with PC-3 prostate; 17.9 µM in the assay with RXF 393 renal; 30.3 µM in the assay with SK-MEL-28 melanoma. For the same molecule, the TGI in the assay on SK-OV-3 ovarian turned out to be 31.3 µM; with SN12C renal it was 4.2 µM; in the assay with U251 CNS, 19.3 µM; in the assay with UO-31 renal it was 3.92 µM.

Turning to `CC(C)=CC(O)C/C(C)=C/CC/C(C)=C/CCC1(C)C(CCCO)/C(=C(/C)C=O)CCC1(C)O` (configuration not stated), the TGI in the assay on 786-0 renal is more than 100 µM; in the assay with HOP-62 NSCLC, 88.6 µM; in the assay on NCI-H460 lung, more than 100 µM; in the assay on PC-3 prostate, more than 100 µM; in the assay on RXF 393 renal it was 90.6 µM; in the assay with SK-MEL-28 melanoma, more than 100 µM. Further, the TGI with SK-OV-3 ovarian was more than 100 µM; with SN12C renal, 76.2 µM; in the assay with U251 CNS, more than 100 µM; in the assay with UO-31 renal, more than 100 µM.
